Earlier results in patent publication US20050175599A1, “Process for producing substance” (Kyowa Hakko Kogyo Co., Ltd., priority 2001, published 2005).

Experiments:
murine fibroblast cells = details: ubiquinone added to media; Protoplasma, 184, 214 (1995); cited from earlier work
HeLa cells = details: ubiquinone added to media; Protoplasma, 184, 214 (1995); cited from earlier work
bovine embryo cells = details: ubiquinone added to media; Biol. Reprod., 61, 541 (1999); cited from earlier work

Measured: effect on cell growth

COC1=C(OC)C(=O)C(C/C=C(\C)CC/C=C(\C)CC/C=C(\C)CC/C=C(\C)CC/C=C(\C)CC/C=C(\C)CC/C=C(\C)CC/C=C(\C)CC/C=C(\C)CCC=C(C)C)=C(C)C1=O [ubiquinone, 2,3-dimethoxy-5-methyl-6-polyprenyl-1,4-benzoquinone]
promotes the growth: all assays above
